Assay results from US12570603B2, “FABP4/5 inhibitors, methods of use and methods of making” (Novius Therapeutics, LLC, priority 2021, dated 2026).
Values belong to the compound of their own block, whether it stands above or below them.

Legend:
[1] = tested on: NPG human neuroblastoma cells; experiment: Neuroblastoma proliferation assay with or without all-trans retinoic acid; assay type: cell-based; details: for proliferation of neuroblastoma cells in combination with atRA: combined with atRA; for proliferation of neuroblastoma cells: compound alone, 4 days
Method: (§1) COS-7, MDA-MB-231, HepG2, LX-2, 3T3-L1, NPG, and MCF7 were cultured in Dulbecco's modified Eagle's medium (DMEM) supplemented with 10% fetal bovine serum (Invitrogen Life Sciences, Carlsbad, CA). MDA-MB-157 and MB-549 cells were cultured in L-Glutamine containing RPMI medium supplemented with 10% fetal calf serum (Invitrogen Life Sciences, Carlsbad, CA). For proliferation assays, 2000 cells were plated in each well of 96-well plate. The next day cells were treated with compounds and incubated in Incucyte for 4 days. Images taken every 4 hours for the duration of the time were analyzed to calculate percentage of confluency in response to the treatments.
Activation of PPARβ by atRA shifts the signaling of this vitamin from its cognate receptor RAR that is known to have anti-carcinogenic activities in multiple cancers to the pro-carcinogenic PPARβ. […] Accordingly, NB, human NPG cells were used to test the effect of FABP5 inhibitors on cells' proliferation in combination with atRA. Cells were treated with either B104 or B108 in the presence or absence of atRA.

PPARγ = experiment: Transactivation assay, PPRE luciferase reporter in COS-7 cells; assay type: cell-based; details: for activation of PPARγ: 5 μM, COS7 cells, FIG. 36C; for activation of transcription by PPARγ: tested against rosiglitazone, FIG. 4
Method: (§2) COS-7 were cultured in 6-well plates and co-transfected with either a luciferase reporter driven by 3 copies of a PPRE and expression vector for either PPARδ, PPARα or PPARγ together with a vector harboring cDNA for β-galactosidase, serving as a transfection control. To test whether FABP4 or FABP5 mediate activation of their cognate receptors PPARγ and PPARδ, respectively, cells were also co-transfected with a plasmid harboring sequence of either FABP4 or FABP5. 18 h post-transfection, cells were placed in a serum-free medium and treated with agonist/compound. 18 h. later, cells were lysed, luciferase activity was assayed (Promega, WI, USA) and corrected for transfection efficiency by the activity of β-galactosidase.
(§3) COS-7 were cultured in 6-well plates and co-transfected with either a luciferase reporter driven by 3 copies of a PPRE and expression vector for either PPARδ, PPARα or PPARγ together with a vector harboring cDNA for β-galactosidase, serving as a transfection control. 18 h. post-transfection, cells were placed in a serum-free medium and treated with agonist/compound. 18 h. later, cells were lysed, luciferase activity was assayed (Promega, WI, USA) and corrected for transfection efficiency by the activity of β-galactosidase.

PPARδ = experiment: as above; assay type: cell-based
Method: as §2, §3

FABP4 = molecular target: T1, FABP4 (Homo sapiens, UniProt P15090); experiment: FABP binding assay by fluorescence titration (ANS competition); details: fluorescence competition with ANS; read-out: FABP4 binding
T1 construct: made in house
T1 sequence (P15090 whole entry, species assumed): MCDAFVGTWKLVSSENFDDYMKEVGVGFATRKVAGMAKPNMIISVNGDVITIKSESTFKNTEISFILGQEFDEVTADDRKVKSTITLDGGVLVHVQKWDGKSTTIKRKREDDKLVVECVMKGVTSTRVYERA
Method: (§4) This example illustrates a binding assay study used to determine the binding affinity of the various inhibitor compounds disclosed herein with the various FABPs: FABP3, FABP4, FABP5 and FABP7.
(§5) Binding assays for FABP3, FABP4, FABP5 and FABP7 were carried out by fluorescence titrations. FABPs were bacterially expressed and purified and the equilibrium dissociation constants (Kd) that characterize their interactions with different compounds were measured by fluorescence competition assays. The method entails two steps as described in e.g., Lin, Q. et al., “Ligand selectivity of the peroxisome proliferator-activated receptor alpha,” Biochemistry 38, 185-190, doi:10.1021/bi9816094 bi9816094 [pii](1999). In the first step, Kd for the association of the protein with the fluorescent fatty acid probe ANS was measured. Protein ([…]) was titrated with ANS from a concentrated solution in DMSO. Ligand binding was monitored by following the increase in the fluorescence of the ligand upon binding to the protein, and Kd for the association of ANS with the each FABP was computed from titration curves as described in e.g., Norris, A. W. & Li, E., “Fluorometric titration of the CRABPs,” Methods Mol Biol 89, 123-139 (1998)). Kds for binding of non-fluorescent ligands were then measured by monitoring their ability to displace ANS in the binding pocket of the protein. Each FABP was pre-complexed with ANS at 1:1 molar ratio and titrated with the different compounds whose binding was reflected by a decrease in probe fluorescence. Kds were extracted from the EC50 of the competition curve and the measured Kd for ANS.
(§6) Binding assays for FABP3, FABP4, FABP5 and FABP7 were carried out by fluorescence titrations as described in Example 16.

FABP5 = molecular target: T2, FABP5 (Homo sapiens, UniProt Q01469); experiment: as above; details: fluorescence competition with ANS; read-out: FABP5 binding
T2 construct: made in house
T2 sequence (Q01469 whole entry, species assumed): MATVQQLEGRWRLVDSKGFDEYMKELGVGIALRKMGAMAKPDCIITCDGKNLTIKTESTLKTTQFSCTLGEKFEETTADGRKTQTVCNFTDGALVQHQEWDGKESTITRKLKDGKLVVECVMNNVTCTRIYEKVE
Method: as §4, §5, §6

MB-231 cells = experiment: Proliferation assay (Incucyte confluency, 4 days); assay type: cell-based; details: MB-231, serial dilution
Method: as §1
The TNBC line MB-231 was used to calculate the efficacy of compounds B104, B106, B110, B116, and B118 in inhibiting proliferation of the cancer cells. Cells were treated with serial dilution of the compounds or the known FABP5/7 inhibitor SBF-I26 and proliferation was measured in Incucyte by calculating percentage of confluency every 4 hours over 4 days. […] The EC50 for each compound was calculated by fitting the percentage of inhibition vs. the logarithmic transformation of the used concentrations (FIG. 37B and FIG. 37D). Additionally, the effect of B116 and B118 was also tested on proliferation of the human TNBC lines MDA-MB-157 (FIG. 37E) and MB-549 (FIG. 37F).

[2] = tested on: FABP4 together with PPARγ; experiment: Transcriptional activation assay in cells overexpressing FABP4, with PPARγ activator rosiglitazone; assay type: cell-based; details: FIG. 7
Method: as §2

[3] = tested on: FABP5 together with PPARδ; experiment: Transcriptional activation assay in cells overexpressing FABP5, with PPARδ activator GW0742; assay type: cell-based; details: together with GW0742, FIG. 8
Method: as §2

[4] = tested on: PPARδ targets PDPK1 and CD47 in TNBC cells MB-157; experiment: Real-time PCR of PPARδ targets; assay type: cell-based, human; details: MB-157, 1 μM, 6 hours
Method: (§7) Cells were treated with a compound for 6 h. then lysed and RNA was extracted using Trizol, according to the manufacturer's instructions. cDNA was generated using GeneAmp RNA PCR (Applied Biosystems). qPCR was carried out using TaqMan chemistry and Assays-on-Demand probes (Applied Biosystems). 18s (4352930) rRNA was used for normalization. Relative expression was calculated as 2^−ΔΔCT.

[5] = tested on: PPARδ targets PDPK1 and CD47 in TNBC cells MB-231; experiment: Real-time PCR of PPARδ targets; assay type: cell-based; details: MB-231, 1 μM, 6 hours
Method: as §7

[6] = tested on: MB-231 shC and shF5 cells; experiment: Proliferation assay, MB-231 lines expressing control shRNA (shC) or FABP5 shRNA (shF5); assay type: cell-based; details: MB-231 shC vs shF5, different concentrations
Method: (§8) 2000 cells were plated in each well of 96-well plate. The next day cells were treated with compounds and incubated in Incucyte for 4 days. Images taken every 4 hours for the duration of the time were analyzed to calculate percentage of confluency in response to the treatments. Growth inhibition was calculated as 1−(percentage of viable cells out of untreated cells).

TNBC lines and MCF7 = experiment: Proliferation assay in multiple TNBC lines and MCF7, MB-231 shF5 as control; assay type: cell-based
Method: as §8

PPARα = molecular target: T3, PPARα (Homo sapiens, UniProt Q07869); experiment: Transactivation assay, PPRE luciferase reporter in COS-7 cells; assay type: cell-based
T3 construct: expressed in transfected cells; host or cells: COS-7
T3 sequence (Q07869 whole entry, species assumed): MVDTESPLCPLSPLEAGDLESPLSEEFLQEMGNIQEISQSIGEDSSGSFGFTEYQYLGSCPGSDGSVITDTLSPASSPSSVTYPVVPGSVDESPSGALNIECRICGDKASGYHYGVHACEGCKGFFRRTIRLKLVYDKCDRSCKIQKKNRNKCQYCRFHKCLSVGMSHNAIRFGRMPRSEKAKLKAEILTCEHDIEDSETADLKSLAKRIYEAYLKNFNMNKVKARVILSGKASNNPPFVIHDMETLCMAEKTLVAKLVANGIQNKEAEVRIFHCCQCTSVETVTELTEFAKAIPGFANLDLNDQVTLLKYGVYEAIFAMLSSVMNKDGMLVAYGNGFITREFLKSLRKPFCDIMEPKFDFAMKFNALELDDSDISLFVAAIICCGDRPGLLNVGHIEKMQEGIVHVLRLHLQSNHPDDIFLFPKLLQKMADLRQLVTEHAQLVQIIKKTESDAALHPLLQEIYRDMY
Method: as §2, §3

- Kd (FABP4): 48 nM
- Kd (FABP5): 2 nM
Structure (SMILES): CC(C)Oc1cc(NC(=O)C2CCC(C(=O)O)S2)c(Cl)cc1Cl (centres unmarked) [Compound B108, 5-((2,4-dichloro-5-isopropoxyphenyl)-carbamoyl)tetrahydrothiophene-2-carboxylic acid]
- proliferation of neuroblastoma cells in combination with atRA [1]: enhanced
- proliferation of neuroblastoma cells [1]: significantly inhibited proliferation
- activation of PPARγ (PPARγ): activated PPARγ
- activation of transcription by PPARδ (PPARδ; 5 μM, COS7 cells, FIG. 36A): do not Activate Transcription
- suppression of growth of TNBC cells compared with SBF-I26 (MB-231 cells): Suppress Growth of TNBC Cells More Effectively than the Commercially Available Inhibitor SBF-I26

- Kd (FABP4): 286 nM
- Kd (FABP5): 15 nM
Structure (SMILES): CC(C)Oc1cc(NC(=O)C(C)SC(C)C(=O)O)c(Cl)cc1Cl (centres unmarked) [Compound B106, 2-((1-((2,4-dichloro-5-isopropoxyphenyl)amino)-1-oxopropan-2-yl)thio)propanoic acid]

Structure (SMILES): C#CCOc1cc(NC(=O)CSCC(=O)O)c(Cl)cc1Cl [Compound B9]
- inhibition of PPARγ activity in cells overexpressing FABP4 [2]: inhibit activity of the nuclear receptors only in cells that express the binding proteins
- activation of transcription by PPARγ (PPARγ): did not activate transcription
- activation of transcription by PPARδ (PPARδ; compared to GW0742, FIG. 5): did not active transcription
- inhibition of PPARδ activity in cells overexpressing FABP5 [3]: inhibit activity of the nuclear receptors only in cells that express the binding proteins
- levels of endogenous PPARδ targets PDPK1 and CD47 [4]: significantly lower
- levels of endogenous PPARδ targets PDPK1 and CD47 [5]: significantly lower
- TNBC cell growth, shC versus shF5 [6]: suppressed TNBC cell growth only in the cells highly expressing FABP5
- growth inhibition of TNBC lines by FABP5 level (TNBC lines and MCF7): inhibited growth of only TNBC lines expressing high FABP5 levels

- activation of PPARα (PPARα; compared to WY-14643, FIG. 6): activate PPARα
Structure (SMILES): O=C(O)CSCC(=O)Nc1cc(OCc2ccccc2)c(Cl)cc1Cl [Compound B7]
- inhibition of PPARγ activity in cells overexpressing FABP4 [2]: inhibit activity of the nuclear receptors only in cells that express the binding proteins
- activation of transcription by PPARγ (PPARγ): did not activate transcription
- activation of transcription by PPARδ (PPARδ; compared to GW0742, FIG. 5): did not active transcription
- inhibition of PPARδ activity in cells overexpressing FABP5 [3]: inhibit activity of the nuclear receptors only in cells that express the binding proteins
- levels of endogenous PPARδ targets PDPK1 and CD47 [4]: significantly lower
- levels of endogenous PPARδ targets PDPK1 and CD47 [5]: significantly lower
- TNBC cell growth, shC versus shF5 [6]: suppressed TNBC cell growth only in the cells highly expressing FABP5
- growth inhibition of TNBC lines by FABP5 level (TNBC lines and MCF7): inhibited growth of only TNBC lines expressing high FABP5 levels

- Kd (FABP4): 242 nM
- Kd (FABP5): 15 nM
Structure (SMILES): CC(C)Oc1cc(NC(=O)COCC(=O)O)c(Cl)cc1Cl [Compound B110, 2-(2-((2,4-dichloro-5-isopropoxyphenyl)amino)-2-oxoethoxy)acetic acid]
- activation of transcription by PPARδ (PPARδ; 5 μM, COS7 cells, FIG. 36A): do not Activate Transcription
- suppression of growth of TNBC cells compared with SBF-I26 (MB-231 cells): Suppress Growth of TNBC Cells More Effectively than the Commercially Available Inhibitor SBF-I26

- Kd (FABP4): 218 nM
- Kd (FABP5): 6 nM
Structure (SMILES): CC(C)Oc1cc(NC(=O)CCCC(=O)O)c(Cl)cc1Cl [Compound B114, 5-((2,4-dichloro-5-isopropoxyphenyl)amino)-5-oxopentanoic acid]

- activation of PPARα (PPARα; 5 μM, COS7 cells, FIG. 36B): activate both PPARα and PPARγ
- Kd (FABP4): 97 nM
- Kd (FABP5): 7 nM
Structure (SMILES): CC(C)Oc1cc(NC(=O)CSC(C)(C)C(=O)O)c(Cl)cc1Cl [Compound B104, 2-((2-((2,4-dichloro-5-isopropoxyphenyl)amino)-2-oxoethyl)thio)-2-methylpropanoic acid]
- proliferation of neuroblastoma cells in combination with atRA [1]: enhanced
- proliferation of neuroblastoma cells [1]: significantly inhibited proliferation
- activation of PPARγ (PPARγ): activate both PPARα and PPARγ
- activation of transcription by PPARδ (PPARδ; 5 μM, COS7 cells, FIG. 36A): do not Activate Transcription
- suppression of growth of TNBC cells compared with SBF-I26 (MB-231 cells): Suppress Growth of TNBC Cells More Effectively than the Commercially Available Inhibitor SBF-I26

- Kd (FABP4): 116 nM
- Kd (FABP5): 6 nM
Structure (SMILES): CC(C)Oc1cc(NC(=O)CSC(C)C(=O)O)c(Cl)cc1Cl (centres unmarked) [Compound B102, 2-((2-((2,4-dichloro-5-isopropoxyphenyl)amino)-2-oxoethyl)thio)propanoic acid]

- Kd (FABP4): 116 nM
- Kd (FABP5): 15 nM
Structure (SMILES): CC(C)Oc1cc(NC(=O)C2CCC(C(=O)O)O2)c(Cl)cc1Cl (centres unmarked) [Compound B112, 5-((2,4-dichloro-5-isopropoxyphenyl)carbamoyl)tetrahydrofuran-2-carboxylic acid]
